Test results as given in patent US6469052B2, “Compounds for the photodecontamination of pathogens in blood” (Cerus Corporation, priority 1993, dated 2002).

How the values were obtained:
[1] = test system: GMP-140 (p-selectin) on platelets; assay: Platelet function: GMP-140 expression (flow cytometry, CD62); format: cell-based, human; settings: 100 μM compound, 5 Joules/cm^2, 5 days storage
Procedure: To measure the effects of the present compounds and methods of decontamination on platelet function using these four indicators, four samples were prepared for each compound tested, two control samples and two containing compound. Three units of human platelets were obtained from the Sacramento Blood Center, Sacramento, Calif. These were each transferred under sterile conditions to 50 ml centrifuge tubes, then aliquots of each unit were transferred into a second set of 50 ml sterile centrifuge tubes. To each centrifuge tube containing platelet concentrate (PC), an aliquot of compound stock was added to reach a final concentration of 100 μM of compound. […] The samples were pipetted gently up and down to mix. Then aliquots (either 3 ml or 8 ml) of each sample was transferred to two sterile Teflon™ Medi-bags™ (American Fluoroseal Co., Silver Springs, Md.) (presently owned by The West Company, Lionville, Pa.). Samples were treated in one of two different sized bags, having either 3 ml or 8 ml capacity. […] For each compound tested, two control samples without compound were prepared by again removing aliquots of platelet concentrate (17 ml if using an 8 ml bag, […] if using a 3 ml bag) from the same one of the first set of 50 ml centrifuge tubes from which the compound sample was drawn, and dividing into Medibags, as before. One of each pair of Medibags containing a compound, and one of each pair of control Medibags, were illuminated for 5 Joules/cm^2 on the device described in Example 1, above. Then all experimental and control Medibags were placed on a platelet shaker for storage for 5 days. The same experiments were repeated several times to obtain more statistically meaningful data, as represented by “n”, the number of data points represented, in the graphs of FIGS. 21-24, discussed below.

[2] = test system: Chinese hamster ovary (CHO) cells; assay: In vitro genotoxicity screen in CHO cells; format: cell-based; settings: approximately 3 hours exposure in the dark, dilutions 1-1000 μg/ml
Excerpt: The positive control was methylmethane sulfonate.
Coverslips were mounted with Permount.

[3] = test system: Salmonella typhimurium TA98; assay: Ames assay (dark mutagenicity), strain TA98
Excerpt: The second property that is important in testing a compound for use in methods of the present invention is mutagenicity. The most widely used mutagen/carcinogen screening assay is the Ames test. This assay is described by D. M. Maron and B. N. Ames in Mutation Research 113: 173 ( 1983) and a specific screen is described in detail in Example 17, below. The Ames test utilizes several unique strains of Salmonella typhimurium that are histidine- dependent for growth and that lack the usual DNA repair enzymes. The frequency of normal mutations that render the bacteria independent of histidine (i.e., the frequency of spontaneous revertants) is low. The test allows one to evaluate the impact of a compound on this revertant frequency.
In this example the compounds of the present invention are tested for their dark mutagenicity using an Ames assay. The procedures used for the Salmonella mutagenicity test as described in detail by Maron and Ames were followed exactly. Maron, D. M. and B. N. Ames, Mutation Research 113: 173 ( 1983). A brief description for each procedure is given here. The tester strains TA97a, TA98, TA100, TA102, TA1537 and TA1538 were obtained from Dr. Ames. TA97a, TA98, TA1537 and TA1538 are frameshift tester strains. TA100 and TA102 are base-substitution tester strains. Upon receipt each strain was cultured under a variety of conditions to confirm the genotypes specific to the strains.
The first tests done with the strains were to determine the range of spontaneous reversion for each of the strains. With each mutagenicity experiment the spontaneous reversion of the tester strains to histidine independence was measured and expressed as the number of spontaneous revertants per plate. This served as the background controls.
For all experiments, the pre-incubation procedure was used. In this procedure one vial of each tester strain was thawed and 20 μL of this culture was added to 6 mL of Oxoid Nutrient Broth #2. This solution was allowed to shake for 10 hours at 37° C. In the pre-incubation procedure, 0.1 mL of this overnight culture was added to each of the required number of sterile test tubes. To half of the tubes 0.5 mL of a 10% S-9 solution containing Aroclor 1254 induced rat liver extract (Molecular Toxicology Inc., Annapolis, Md.), and MgCl2, KCl, glucose-6-phosphate, NADP, and sodium phosphate buffer (Sigma, St. Louis, Mo.) were added. To the other half of the tubes 0.5 mL of 0.2M sodium phospate buffer, pH 7.4, was used in place of the S-9 mixture (the -S9 samples). Finally 0.1 mL of the test solution containing either 0, 0.1, 0.5, 1, 5, 10, 50, 100, 250, or 500 μg/mL of the test compound was added. The 0.7 mL mixture was vortexed and then pre-incubated while shaking for 20 minutes at 37° C. After shaking, 2 mL of molten top agar supplemented with histidine and biotin were added to the 0.7 mL mixture and immediately poured onto a minimal glucose agar plate (volume of base agar was 20 mL). The top agar was allowed 30 minutes to solidify and then the plates were inverted and incubated for 44 hours at 37° C. After incubation the number of revertant colonies on each plate were counted. […] (“n” represents the number of replicates performed for each data point.)
Maron and Ames (1983) describe the conflicting views with regard to the statisical treatment of data generated from the test.

mouse reticulocytes = settings: increased dose levels, male Balb/c mice, tail vein
Procedure: Male Balb/c mice were then injected with 0.1 ml of a compound solution via the tail vein. At least 3 mice were injected per dose level. Saline only was used as a negative control. For a positive control, cyclophosphamide (cycloPP) was administered at a dose of 30 mg/kg. In the experimental group, the injections were repeated once per day for four days. In the positive control group, the sample was administered only once, on day three. On day 5, several microliters of blood were withdrawn from each subject and smeared on a glass slide. Cells were fixed in absolute methanol and stored in a slide rack.
For analysis, cells were stained with acridine orange and visualized under a fluorescence microscope by counting: (i) the number of reticulocytes per 5000 erythrocytes; and (ii) the number of micronucleated reticulocytes per 1000 reticulocytes. Reticulocytes were distinguished by their red fluorescence due to the presence of RNA. Micronuclei were distinguished by their green fluorescence due to the presence of DNA. The percentage of reticulocytes (%PCE) was then calculated. A decrease in the frequency of […] in the percentage of reticulocytes, is an indication of bone marrow toxicity. The percentage of reticulocytes with micronuclei (%PCE with MN) was also calculated. An increase in %PCE with MN is a measure of clastogenicity.
After initial results were determined, the experiment was repeated using increased dose levels, until: (i) Micronucleus formation was seen; or (ii) Bone marrow toxicity was observed; or (ii) The lethal dose was reached; or (iv) A dose of 5 g/kg was administered.

Structure (SMILES) | GMP-140 expression: sample treated with light and psoralen (PCD) versus day 5 untreated control (D5) [1] | genotoxic (toxic) concentration [2] [µg/mL] | revertants per plate ([3]; TA98 +S9, 10 μg/plate) | revertants per plate ([3]; TA98 +S9, 50 μg/plate) | revertants per plate ([3]; TA98 +S9, 100 μg/plate) | revertants per plate ([3]; TA98 +S9, 250 μg/plate) | revertants per plate ([3]; TA98 +S9, 500 μg/plate) | revertants per plate ([3]; TA98 −S9, 10 μg/plate) | revertants per plate ([3]; TA98 −S9, 50 μg/plate) | revertants per plate ([3]; TA98 −S9, 100 μg/plate) | revertants per plate ([3]; TA98 −S9, 250 μg/plate) | revertants per plate ([3]; TA98 −S9, 500 μg/plate) | outcome of dose escalation in the micronucleus assay (mouse reticulocytes)
Cc1oc2c(C)c3oc(=O)cc(C)c3cc2c1COCCN [Compound 2, 4′-(4-amino-2-oxa)butyl-4,5′,8-trimethylpsoralen] | little or no difference | 100 | 24 | 35 | 53 | 69 | 63 | 28 | 52 | 39 | 29 | 6 | the acutely lethal dose was reached before there were any signs of bone marrow toxicity or micronucleus formation
Cc1oc2c(C)c3oc(=O)cc(C)c3cc2c1CNCCCCN [Compound 6, 4′-(6-amino-2-aza)hexyl-4,5′,8-trimethylpsoralen] | little or no difference | 100 | – | – | – | – | – | 12 | 12 | 22 | 12 | 9 | the acutely lethal dose was reached before there were any signs of bone marrow toxicity or micronucleus formation
